Read-outs that look alike come from different tables or passages of the source.
Columns and labels:
[1] = system: TGF-β1 induced ECM accumulation in HFL1 human lung fibroblast cells; assay: TGF-β1 induced monolayer extracellular matrix (ECM) accumulation assay (Sirius Red collagen) in fibronectin-coated plates; type: cell-based; settings: for inhibition at 300 µM: compound alone at 300 μM (FIG. 1)
Excerpt: The composition comprising tranilast and NAC or composition containing pirfenidone and NAC was investigated for their antifibrotic activity by employing in vitro collagen synthesis assay: the TGF-β1 induced monolayer extracellular matrix (ECM) accumulation assay in fibronectin-coated plates.
Method Human lung fibroblast cell line, HFL1, was purchased from American Type Culture Collection. Cells were maintained in FK12 medium supplemented with 10% FBS and antibiotics. Cells were trypsinized and seeded into 96-well fibronectin-coated plate as 5×10^4cells/well and cultured overnight to achieve 60-80% confluence. After a washing with PBS and serum-free medium, fresh medium supplemented with 40 pM of TGF-β1 was added in each test well. Different concentrations of tranilast, pirfenidone, NAC and their combinations were also added to some test wells. The plates were left at 37° C. in a CO2 incubator for 72 h. After removing medium cells were fixed to the plate with 0.5% glutaraldehyde for 30 minutes at room temperature. Cells were washed and treated with 0.5M acetic acid for 30 minutes. After washing cells with distilled water 250 µl of Sirius Red was added for 2 hours. Dye was removed and cells were washed with distilled water. Sirius Red was eluted with 200 ul 0.1 N sodium hydroxide, and the optical density at 540 nm was determined using a Molecular Dynamics spectrophotometer.

[2] = cited from earlier work
[3] = doses of up to 600 mg/day for at least 3 months, many years of clinical use; cited from earlier work
[4] = HFL1 cells, 40 pM TGF-β1, 72 h, compound alone at 10 μM (FIG. 1)
[5] = Homo sapiens, HFL1 cells, 40 pM TGF-β1, 72 h, read-out: inhibition of TGF-β1 mediated ECM (collagen) accumulation
[6] = combination screen plate (FIG. 2A/3A), HFL1 cells, compound alone at 300 μM

In the case of `CC(=O)N[C@@H](CS)C(=O)O` [NAC, N-acetyl-cysteine], the “inhibition of TGF-β1 mediated ECM accumulation” value ([1]; HFL1 cells, 40 pM TGF-β1, 72 h, alone at 0.1 mM (FIG. 1C)) is reported as “not effective”, the “inhibition of TGF-β1 mediated ECM accumulation” value ([1]; HFL1 cells, 40 pM TGF-β1, 72 h, alone at 0.5 mM (FIG. 1C)) is reported as “not effective” and the “inhibition of TGF-β1 mediated ECM accumulation” value ([1]; HFL1 cells, 40 pM TGF-β1, 72 h, alone at 1 mM (FIG. 1C)) is reported as “not effective”. For the same molecule, the “suppression of TGF-β1 mediated ECM accumulation” value ([1]; HFL1 cells, 40 pM TGF-β1, 72 h, alone at 2 mM (FIG. 1C)) was 32±14%, the “suppression of TGF-β1 mediated ECM accumulation” value ([1]; HFL1 cells, 40 pM TGF-β1, 72 h, alone at 5 mM (FIG. 1C)) was 45±17% and the “suppression of TGF-β1 mediated ECM accumulation” value ([1]; HFL1 cells, 40 pM TGF-β1, 72 h, alone at 10 mM (FIG. 1C)) was 70.5±18%. The inhibition at 20000 µM ([1]; Homo sapiens, HFL1 cells, 40 pM TGF-β1, 72 h, alone at 20 mM (FIG. 1C), read-out: inhibition of TGF-β1 mediated ECM accumulation) was 100% and the “suppression of TGF-β1 mediated collagen accumulation” value ([1]; screen plate FIG. 2A, compound alone at 2 mM) was 25%.
With `Cc1ccc(=O)n(-c2ccccc2)c1` [pirfenidone, 5-methyl-L-phenyl-2-(1H)-pyridone] the “inhibition of TGF-β1 mediated ECM (collagen) accumulation” value (“inhibition … (collagen) accumulation” below) [1, 4] was “not effective”, the “inhibition … (collagen) accumulation” value ([1]; HFL1 cells, 40 pM TGF-β1, 72 h, compound alone at 100 μM (FIG. 1)) was “not effective” and the inhibition at 1000 µM ([1]; Homo sapiens, HFL1, screen plate FIG. 3A, compound alone at 1000 μM, read-out: anti-fibrosis activity (inhibition of TGF-β1 induced collagen accumulation)) was 100%. It also gave an inhibition at 300 µM [1, 5] of 22 ± 7%, an inhibition at 500 µM ([1]; Homo sapiens, HFL1 cells, 40 pM TGF-β1, 72 h, compound alone at 500 μM (FIG. 1), read-out: inhibition of TGF-β1 mediated ECM (collagen) accumulation) of 33 ± 8% and an inhibition at 1000 µM ([1]; Homo sapiens, HFL1 cells, 40 pM TGF-β1, 72 h, compound alone at 1000 μM (FIG. 1), read-out: inhibition of TGF-β1 mediated ECM (collagen) accumulation) of about 100%. The “suppression of TGF-β1 mediated collagen accumulation” value [1, 6] was 18% and the plasma concentration ([2]; usual therapeutic dose of 1200 mg/day (Shi, Wu et al. 2007)) was 100 to 1000 µM.
With `COc1ccc(/C=C/C(=O)Nc2ccccc2C(=O)O)cc1OC` [tranilast, n-[3,4-dimethoxycinnamoyl] anthranilic acid] the “shift in the potency of tranilast” value ([1]; 50 μM tranilast with 2 mM NAC (88%) versus tranilast alone (11%)) was 8 fold, the “inhibition … (collagen) accumulation” value [1, 4] was “no significant inhibition” and the “inhibition … (collagen) accumulation” value ([1]; HFL1 cells, 40 pM TGF-β1, 72 h, compound alone at 25 μM (FIG. 1)) was “no significant inhibition”. For the same molecule, the “inhibition … (collagen) accumulation” value ([1]; HFL1 cells, 40 pM TGF-β1, 72 h, compound alone at 50 μM (FIG. 1)) was “no significant inhibition”, the inhibition at 100 µM ([1]; Homo sapiens, HFL1 cells, 40 pM TGF-β1, 72 h, compound alone at 100 μM (FIG. 1), read-out: inhibition of TGF-β1 mediated ECM (collagen) accumulation) was 34 ± 11% and the inhibition at 300 µM [1, 5] was 100%. The “suppression of TGF-β1 mediated collagen accumulation” value [1, 6] was 100%, the “suppression of TGF-β1 mediated collagen accumulation” value ([1]; screen plate FIG. 2A, compound alone at 50 μM) was 11% and the plasma concentration ([2]; after oral administration of the usual therapeutic dose of 600 mg/day (Kusama et al. 1999)) was 30 to 300 µM. For the same molecule, the “clinical safety and tolerability” value [3] was “safe and well tolerated”.

Reference: patent US20110288134A1, “COMPOSITION AND METHOD FOR TREATING FIBROSIS” (Pacific Therapeutics Ltd., priority 2008, published 2011)
